Consider six molecules from PubChem BioAssay (NCI).

Common to all, as to assay: NCI-60 cell line screen, 48 h
Experiment [1] concerns 786-0 renal.
Experiment [2] deals with A549 NSCLC.
In experiment [3] the test system is COLO 205 colon.
Experiment [4] deals with NCI-H460 lung.
Experiment [5] concerns NCI-H522 lung.
Experiment [6] concerns OVCAR-8 ovarian.
Experiment [7] relates to RPMI-8226 leukemia.
Experiment [8] deals with SF-539 CNS.
Experiment [9] deals with SK-MEL-2 melanoma.
Experiment [10] relates to TK-10 renal.

The structures appear in SMILES notation.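 Following 48 hours of exposure in 96-well plates, responses at five concentrations were used to interpolate endpoints linearly. GI50: concentration for 50% inhibition of growth. At the TGI there is no net growth.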

With `CC(C)(C)N1CC(OC(N)=O)C1`, the GI50 in experiment [1], in experiment [2], in [3], in experiment [4], in experiment [5] and in [6] was greater than 100 µM in each case. In addition, the GI50 in experiment [7], in experiment [8], in [9] and in experiment [10] was greater than 100 µM throughout. Moreover, the TGI in [1], in [2], in experiment [3], in [4], in experiment [5] and in [6] was greater than 100 µM each time. The TGI in experiment [7], in experiment [8], in [9] and in experiment [10] was greater than 100 µM in each case.
Turning to `O=C(O)CN(c1ccccc1)S(=O)(=O)c1ccc(Cl)cc1`, the TGI in [1], in experiment [2], in experiment [3], in experiment [4], in [5] and in experiment [6] was greater than 100 µM throughout. The TGI in [7], in [8], in experiment [9] and in [10] was greater than 100 µM throughout.
Turning to `C=CCCC(C)N(C(=O)OC(C)(C)C)S(=O)(=O)c1ccc(C)cc1` (stereo not given), the TGI in experiment [1], in [2], in experiment [3], in experiment [4], in experiment [5] and in experiment [6] was greater than 100 µM throughout. In addition, the TGI in [7], in [8], in experiment [9] and in experiment [10] was greater than 100 µM throughout.
For the molecule `CCn1cc(C(=O)N/N=C/c2cccc(F)c2)c(=O)c2cc(F)c(N3CCNC(C)C3)c(F)c21` (stereo not given), the GI50 in experiment [1] was 1.63 µM; in [2], 1.74 µM; in experiment [3], 1.71 µM; in [4], 1.68 µM; in experiment [5] it was 1.76 µM; in experiment [6] it was 1.76 µM. For the same molecule, the GI50 in experiment [7] is 1.79 µM; in experiment [8], 1.59 µM; in [9], 1.97 µM; in [10] it was 1.73 µM. Moreover, the TGI was determined as 3.16 µM in experiment [1]; 3.29 µM in [2]; 3.25 µM in [3]; 3.14 µM in [4]; 3.32 µM in experiment [5]; 3.32 µM in [6]. Moreover, the TGI in experiment [7] was 3.77 µM; in experiment [8], 2.96 µM; in experiment [9], 3.86 µM; in [10], 3.18 µM.
Consider `O=C(Nc1ccc(Cl)cc1)c1cc2cc(F)ccc2cc1O`, for which the GI50 is 2.9 µM in experiment [1]; 2.5 µM in experiment [2]; 2.35 µM in [3]; 0.882 µM in experiment [4]; 0.359 µM in experiment [5]; 2.93 µM in [6]. For the same molecule, the GI50 was 0.591 µM in experiment [7], 1.26 µM in experiment [8], 0.672 µM in experiment [9] and 2.39 µM in [10]. The TGI in experiment [1] was greater than 100 µM; in experiment [2], greater than 100 µM; in experiment [3] it was 6.4 µM; in [4] it was greater than 100 µM; in experiment [5] it was 3.03 µM; in [6] it was greater than 100 µM. Moreover, the TGI is 7.16 µM in [7], 14.3 µM in experiment [8], 2.74 µM in experiment [9] and 58.9 µM in experiment [10].
`CNC(=O)c1cncc(/C=C/c2c(C)cccc2C)c1`: the GI50 in [1] is greater than 25 µM; in experiment [2], greater than 25 µM; in [3], greater than 22.6 µM; in experiment [4], greater than 25 µM; in experiment [5] it was greater than 17.8 µM; in experiment [6], greater than 25 µM. The GI50 in [7] was greater than 25 µM; in experiment [8], 14.5 µM; in experiment [9], greater than 25 µM; in experiment [10], greater than 20.9 µM. For the same molecule, the TGI in [1], in experiment [2], in [3], in [4], in experiment [5] and in [6] was greater than 25 µM throughout. Moreover, the TGI in experiment [7], in [8], in experiment [9] and in experiment [10] was greater than 25 µM in each case.
